# Assay results: paper PMC11599716, “Trapping of spermine, Kukoamine A, and polyamine toxin blockers in GluK2 kainate receptor channels” (Nature Communications, 2024)
# Where two headings read alike, the source gives them in different places.
# Key:
# GluK2 kainate receptor [1] = biological target: T1, GluK2 kainate receptor (Rattus norvegicus, UniProt P42260, I567V/Y571C); test: cryo-EM structures (four BPAM344 molecules per tetramer in all four structures)
# T1 construct: gene Grik2; full-length rat GluK2 (GenBank CAA77778.1), V567, C571, Q621 (Q/R site unedited); LBD-TMD modelled (S429-R874); homotetramer
# GluK2 kainate receptor [2] = biological target: T2, GluK2 kainate receptor (Rattus norvegicus, UniProt P42260); test: whole-cell patch clamp in HEK293 cells expressing GluK2 (agonist, with ConA treatment); assay type: cell-based
# T2 construct: gene Grik2; full-length rat GluK2, Q621 (Q/R site unedited), homotetramer
# GluK2 kainate receptor [3] = biological target: T1, GluK2 kainate receptor; test: cryo-EM structure ([…] Å, with BPAM344); IC50 from whole-cell patch clamp in HEK293 cells; assay type: cell-based
# GluK2 kainate receptor [4] = biological target: T1, GluK2 kainate receptor; test: as above; assay type: cell-based; remark: listed apart in the source
# GluK2 kainate receptor [5] = biological target: T1, GluK2 kainate receptor; test: as above; assay type: cell-based; remark: listed apart in the source
# GluK2 kainate receptor [6] = biological target: T1, GluK2 kainate receptor; test: as above; assay type: cell-based; remark: listed apart in the source
# T1 sequence (P42260 32-908 I567V/Y571C): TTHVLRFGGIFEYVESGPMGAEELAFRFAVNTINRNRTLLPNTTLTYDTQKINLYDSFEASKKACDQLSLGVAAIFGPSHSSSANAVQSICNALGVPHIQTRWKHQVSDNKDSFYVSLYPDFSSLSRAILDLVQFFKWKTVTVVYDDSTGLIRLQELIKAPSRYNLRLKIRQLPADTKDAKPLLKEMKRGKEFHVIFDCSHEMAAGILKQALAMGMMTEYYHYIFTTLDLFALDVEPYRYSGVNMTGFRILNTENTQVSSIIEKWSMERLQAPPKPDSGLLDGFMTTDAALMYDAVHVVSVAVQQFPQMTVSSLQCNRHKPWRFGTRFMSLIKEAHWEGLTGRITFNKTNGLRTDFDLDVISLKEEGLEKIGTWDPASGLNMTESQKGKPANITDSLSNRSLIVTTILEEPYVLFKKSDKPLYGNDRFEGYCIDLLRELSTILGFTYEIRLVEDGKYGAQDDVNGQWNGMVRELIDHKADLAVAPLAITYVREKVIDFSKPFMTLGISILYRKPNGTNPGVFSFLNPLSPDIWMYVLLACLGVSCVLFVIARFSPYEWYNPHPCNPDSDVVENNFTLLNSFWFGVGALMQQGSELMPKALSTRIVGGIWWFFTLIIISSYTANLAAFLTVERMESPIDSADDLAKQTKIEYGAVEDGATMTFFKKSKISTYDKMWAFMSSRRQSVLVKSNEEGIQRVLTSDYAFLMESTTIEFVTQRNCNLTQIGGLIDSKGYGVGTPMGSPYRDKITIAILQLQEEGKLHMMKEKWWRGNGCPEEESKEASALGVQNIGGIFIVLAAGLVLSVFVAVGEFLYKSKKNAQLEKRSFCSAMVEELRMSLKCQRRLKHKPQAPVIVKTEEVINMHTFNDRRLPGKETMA
# T2 sequence (P42260 32-908): as the sequence (P42260 32-908 I567V/Y571C) above, with V536I, C540Y counted along it
structure (smiles),measurement,setting,value
"O=S1(=O)NCN(C2CC2)c2ccc(F)cc21 [BPAM, BPAM344]",cryo-EM structures (four BPAM344 molecules per tetramer in all four structures),GluK2 kainate receptor [1],"improved map quality, with well-resolved densities for BPAM, carbohydrates, and annular lipids"
"C=C(C)[C@H]1CN[C@H](C(=O)O)[C@H]1CC(=O)O [KA, kainic acid]","whole-cell patch clamp in HEK293 cells expressing GluK2 (agonist, with ConA trea)",GluK2 kainate receptor [2],the agonist kainic acid (KA) elicited large inward currents with a steady-state value of IControl
"O=C(CCc1ccc(O)c(O)c1)NCCCNCCCCNCCCNC(=O)CCc1ccc(O)c(O)c1 [KukoA, Kukoamine A]",IC50,GluK2 kainate receptor [3],704 ± 31 µM
NCCCNCCCCNCCC(=O)NCCCCCNC(=O)[C@@H](CC(N)=O)NC(=O)Cc1c[nH]c2ccccc12 [NpTx-8],IC50,GluK2 kainate receptor [4],0.51 ± 0.01 µM
CCCC(=O)N[C@H](Cc1ccc(O)cc1)C(=O)NCCCCCCCNCCCCN [PhTx-74],IC50,GluK2 kainate receptor [5],7.53 ± 0.35 µM
"NCCCNCCCCNCCCN [SPM, spermine]",IC50,GluK2 kainate receptor [6],7770 ± 510 µM
